Data from US10004701B2, “Methods and compositions for treating infection” (UNIVERSITY OF ROCHESTER, priority 2012, dated 2018).
Counter-ions that a name gives are not always drawn. Like-named read-outs stand apart in the source and are kept apart here.

Tests used:
Test in all cases: AK assay 384-well format, Prestwick library screening
P. aeruginosa = format: cell-based, Pseudomonas aeruginosa; details: 50 μM final drug concentration; for fold induction at 50 µM: Pseudomonas aeruginosa, 3 h
[1] = system: S. aureus strain USA300-0114; format: cell-based, Staphylococcus aureus; details: 50 μM final drug concentration; for fold induction at 50 µM: Staphylococcus aureus, USA300, 3 h
[2] = system: A. baumannii strain 98-37-09; format: cell-based, Acinetobacter baumannii; details: 50 μM final drug concentration; for fold induction at 50 µM: Acinetobacter baumannii, 983709, 3 h
E. cloacae = format: cell-based, Enterobacter cloacae; details: 50 μM final drug concentration; for fold induction at 50 µM: Enterobacter cloacae, 3 h
K. pneumoniae = format: cell-based, Klebsiella pneumoniae; details: 50 μM final drug concentration; for fold induction at 50 µM: Klebsiella pneumoniae, 3 h
E. coli = format: cell-based, Escherichia coli; details: 50 μM final drug concentration; for fold induction at 50 µM: Escherichia coli, 3 h
E. faecium = format: cell-based, Enterococcus faecium; details: 50 μM final drug concentration; for fold induction at 50 µM: Enterococcus faecium, 3 h
[3] = planktonic P. aeruginosa, positive cutoff 3-fold increase, read-out: AK-based Prestwick library screening result, P. aeruginosa (fold increase in extracellular AK activity)
[4] = planktonic S. aureus, positive cutoff 3-fold increase, read-out: AK-based Prestwick library screening result, S. aureus (fold increase in extracellular AK activity)
[5] = planktonic A. baumannii, positive cutoff 3-fold increase, read-out: AK-based Prestwick library screening result, A. baumannii (fold increase in extracellular AK activity)
[6] = planktonic E. cloacae, positive cutoff 3-fold increase, read-out: AK-based Prestwick library screening result, E. cloacae (fold increase in extracellular AK activity)
[7] = planktonic K. pneumoniae, positive cutoff 3-fold increase, read-out: AK-based Prestwick library screening result, K. pneumoniae (fold increase in extracellular AK activity)
[8] = planktonic E. coli, positive cutoff 3-fold increase, read-out: AK-based Prestwick library screening result, E. coli (fold increase in extracellular AK activity)
[9] = planktonic E. faecium, positive cutoff 3-fold increase, read-out: AK-based Prestwick library screening result, E. faecium (fold increase in extracellular AK activity)
[10] = 384-well format, cutoff for positive-scoring molecules 3-fold increase

SMILES: C[N+]1(C)CCCC(OC(=O)C(O)(c2ccccc2)c2ccccc2)C1 (stereo not shown) [Mepenzolate bromide]
- fold induction at 50 µM (P. aeruginosa; planktonic, cutoff for positive-scoring molecules 3-fold increase, read-out: AK-based Prestwick Library Screening Results, P. aeruginosa (fold increase in extracellular AK activity)): 0.6
- fold induction at 50 µM ([1]; planktonic, cutoff for positive-scoring molecules 3-fold increase, read-out: AK-based Prestwick Library Screening Results, S. aureus (fold increase in extracellular AK activity)): 0.6
- fold induction at 50 µM ([2]; planktonic, cutoff for positive-scoring molecules 3-fold increase, read-out: AK-based Prestwick Library Screening Results, A. baumannii (fold increase in extracellular AK activity)): 0.7
- fold induction at 50 µM (E. cloacae; planktonic, cutoff for positive-scoring molecules 3-fold increase, read-out: AK-based Prestwick Library Screening Results, E. cloacae (fold increase in extracellular AK activity)): 0.7
- fold induction at 50 µM (K. pneumoniae; planktonic, cutoff for positive-scoring molecules 3-fold increase, read-out: AK-based Prestwick Library Screening Results, K. pneumoniae (fold increase in extracellular AK activity)): 0.6
- fold induction at 50 µM (E. coli; planktonic, cutoff for positive-scoring molecules 3-fold increase, read-out: AK-based Prestwick Library Screening Results, E. coli (fold increase in extracellular AK activity)): 0.6
- fold induction at 50 µM (E. faecium; planktonic, cutoff for positive-scoring molecules 3-fold increase, read-out: AK-based Prestwick Library Screening Results, E. faecium (fold increase in extracellular AK activity)): 1

SMILES: Cc1ccccc1OCC(O)CO (stereo not shown) [Mephenesin]
- fold induction at 50 µM (P. aeruginosa; 384-well format, cutoff for positive-scoring molecules 3-fold increase, read-out: AK-based Prestwick Library Screening Results, P. aeruginosa (increase in extracellular AK activity)): 0.6
- fold induction at 50 µM ([1]; 384-well format, cutoff for positive-scoring molecules 3-fold increase, read-out: AK-based Prestwick Library Screening Results, S. aureus (increase in extracellular AK activity)): 0.8
- fold induction at 50 µM ([2]; 384-well format, cutoff for positive-scoring molecules 3-fold increase, read-out: AK-based Prestwick Library Screening Results, A. baumannii (increase in extracellular AK activity)): 0.8
- fold induction at 50 µM (E. cloacae; 384-well format, cutoff for positive-scoring molecules 3-fold increase, read-out: AK-based Prestwick Library Screening Results, E. cloacae (increase in extracellular AK activity)): 0.8
- fold induction at 50 µM (K. pneumoniae; 384-well format, cutoff for positive-scoring molecules 3-fold increase, read-out: AK-based Prestwick Library Screening Results, K. pneumoniae (increase in extracellular AK activity)): 0.7
- fold induction at 50 µM (E. coli; 384-well format, cutoff for positive-scoring molecules 3-fold increase, read-out: AK-based Prestwick Library Screening Results, E. coli (increase in extracellular AK activity)): 0.7
- fold induction at 50 µM (E. faecium; 384-well format, cutoff for positive-scoring molecules 3-fold increase, read-out: AK-based Prestwick Library Screening Results, E. faecium (increase in extracellular AK activity)): 1

SMILES: CCC1(c2ccccc2)NC(=O)N(C)C1=O (stereo not shown) [Mephenytoin]
- fold induction at 50 µM (P. aeruginosa; [3]): 1
- fold induction at 50 µM [1, 4]: 1.1
- fold induction at 50 µM [2, 5]: 1.3
- fold induction at 50 µM (E. cloacae; [6]): 1.3
- fold induction at 50 µM (K. pneumoniae; [7]): 1
- fold induction at 50 µM (E. coli; [8]): 1.1
- fold induction at 50 µM (E. faecium; [9]): 1

SMILES: CCCNC(C)(C)COC(=O)c1ccccc1 [Meprylcaine hydrochloride]
- fold induction at 50 µM (P. aeruginosa; [3]): 0.9
- fold induction at 50 µM [1, 4]: 0.6
- fold induction at 50 µM [2, 5]: 0.8
- fold induction at 50 µM (E. cloacae; [6]): 0.8
- fold induction at 50 µM (K. pneumoniae; [7]): 0.7
- fold induction at 50 µM (E. coli; [8]): 0.9
- fold induction at 50 µM (E. faecium; [9]): 0.9

SMILES: CCC1(c2cccc(O)c2)CCCCN(C)C1 (stereo not shown) [Meptazinol hydrochloride]
- fold induction at 50 µM (P. aeruginosa; planktonic P. aeruginosa, […], read-out: AK-based Prestwick library screening result, P. aeruginosa (fold increase in extracellular AK activity)): 1.1
- fold induction at 50 µM ([1]; planktonic S. aureus, […], read-out: AK-based Prestwick library screening result, S. aureus (fold increase in extracellular AK activity)): 0.9
- fold induction at 50 µM ([2]; planktonic A. baumannii, […], read-out: AK-based Prestwick library screening result, A. baumannii (fold increase in extracellular AK activity)): 1.1
- fold induction at 50 µM (E. cloacae; planktonic E. cloacae, […], read-out: AK-based Prestwick library screening result, E. cloacae (fold increase in extracellular AK activity)): 1.4
- fold induction at 50 µM (K. pneumoniae; planktonic K. pneumoniae, […], read-out: AK-based Prestwick library screening result, K. pneumoniae (fold increase in extracellular AK activity)): 0.9
- fold induction at 50 µM (E. coli; planktonic E. coli, […], read-out: AK-based Prestwick library screening result, E. coli (fold increase in extracellular AK activity)): 1.3
- fold induction at 50 µM (E. faecium; planktonic E. faecium, […], read-out: AK-based Prestwick library screening result, E. faecium (fold increase in extracellular AK activity)): 1.1

SMILES: O=C([O-])c1ccccc1-c1c2cc(Br)c(=O)cc-2oc2[c]([Hg+])c([O-])c(Br)cc12.[Na+].[Na+].[OH-] [Merbromin]
- AK-based Prestwick Library Screening Results, P. aeruginosa (fold increase in extracellular AK activity) (P. aeruginosa; […]): 0.4
- AK-based Prestwick Library Screening Results, S. aureus (fold increase in extracellular AK activity) ([1]; […]): 0.2
- AK-based Prestwick Library Screening Results, A. baumannii (fold increase in extracellular AK activity) ([2]; […]): 0.7
- AK-based Prestwick Library Screening Results, E. cloacae (fold increase in extracellular AK activity) (E. cloacae; […]): 1.4
- AK-based Prestwick Library Screening Results, K. pneumoniae (fold increase in extracellular AK activity) (K. pneumoniae; […]): 0.4
- AK-based Prestwick Library Screening Results, E. coli (fold increase in extracellular AK activity) (E. coli; […]): 0.5
- AK-based Prestwick Library Screening Results, E. faecium (fold increase in extracellular AK activity) (E. faecium; […]): 0.6

SMILES: Nc1ccc(O)c(C(=O)O)c1 [Mesalamine]
- fold induction at 50 µM (P. aeruginosa; [3]): 0.9
- fold induction at 50 µM [1, 4]: 0.7
- fold induction at 50 µM [2, 5]: 0.9
- fold induction at 50 µM (E. cloacae; [6]): 1
- fold induction at 50 µM (K. pneumoniae; [7]): 0.7
- fold induction at 50 µM (E. coli; [8]): 0.9
- fold induction at 50 µM (E. faecium; [9]): 0.9

SMILES: CN1CCCCC1CCN1c2ccccc2Sc2ccc([S+](C)[O-])cc21 (stereo not shown) [Mesoridazine besylate]
- fold induction at 50 µM (P. aeruginosa; planktonic, cutoff for positive 3-fold increase, read-out: AK-based Prestwick Library Screening Results, P. aeruginosa (fold increase in extracellular AK activity)): 1.2
- fold induction at 50 µM ([1]; planktonic, cutoff for positive 3-fold increase, read-out: AK-based Prestwick Library Screening Results, S. aureus (fold increase in extracellular AK activity)): 1.3
- fold induction at 50 µM ([2]; planktonic, cutoff for positive 3-fold increase, read-out: AK-based Prestwick Library Screening Results, A. baumannii (fold increase in extracellular AK activity)): 1
- fold induction at 50 µM (E. cloacae; planktonic, cutoff for positive 3-fold increase, read-out: AK-based Prestwick Library Screening Results, E. cloacae (fold increase in extracellular AK activity)): 1.3
- fold induction at 50 µM (K. pneumoniae; planktonic, cutoff for positive 3-fold increase, read-out: AK-based Prestwick Library Screening Results, K. pneumoniae (fold increase in extracellular AK activity)): 1
- fold induction at 50 µM (E. coli; planktonic, cutoff for positive 3-fold increase, read-out: AK-based Prestwick Library Screening Results, E. coli (fold increase in extracellular AK activity)): 1.1
- fold induction at 50 µM (E. faecium; planktonic, cutoff for positive 3-fold increase, read-out: AK-based Prestwick Library Screening Results, E. faecium (fold increase in extracellular AK activity)): 1.1

SMILES: C=N[C@@H](C(=O)N[C@@H]1C(=O)N2[C@@H]1SC(C)(C)[C@@H]2C(=O)O)c1ccccc1 [Metampicillin sodium salt]
- fold induction at 50 µM (P. aeruginosa; planktonic P. aeruginosa, 384-well, cutoff for positive-scoring molecules 3-fold increase, read-out: AK-based Prestwick Library Screening Results: P. aeruginosa (increase in extracellular AK activity)): 1.3
- fold induction at 50 µM ([1]; planktonic S. aureus, 384-well, cutoff for positive-scoring molecules 3-fold increase, read-out: AK-based Prestwick Library Screening Results: S. aureus (increase in extracellular AK activity)): 1.3
- fold induction at 50 µM ([2]; planktonic A. baumannii, 384-well, cutoff for positive-scoring molecules 3-fold increase, read-out: AK-based Prestwick Library Screening Results: A. baumannii (increase in extracellular AK activity)): 1.1
- fold induction at 50 µM (E. cloacae; planktonic E. cloacae, 384-well, cutoff for positive-scoring molecules 3-fold increase, read-out: AK-based Prestwick Library Screening Results: E. cloacae (increase in extracellular AK activity)): 4.3
- fold induction at 50 µM (K. pneumoniae; planktonic K. pneumoniae, 384-well, cutoff for positive-scoring molecules 3-fold increase, read-out: AK-based Prestwick Library Screening Results: K. pneumoniae (increase in extracellular AK activity)): 1
- fold induction at 50 µM (E. coli; planktonic E. coli, 384-well, cutoff for positive-scoring molecules 3-fold increase, read-out: AK-based Prestwick Library Screening Results: E. coli (increase in extracellular AK activity)): 16.8
- fold induction at 50 µM (E. faecium; planktonic E. faecium, 384-well, cutoff for positive-scoring molecules 3-fold increase, read-out: AK-based Prestwick Library Screening Results: E. faecium (increase in extracellular AK activity)): 1.6

SMILES: CNCC(O)c1ccc(O)c(OC)c1.Cl (stereo not drawn) [Metanephrine hydrochloride DL]
- AK-based Prestwick Library Screening Results, P. aeruginosa (increase in extracellular AK activity) (P. aeruginosa; [10]): 1.1
- AK-based Prestwick Library Screening Results, S. aureus (increase in extracellular AK activity) [1, 10]: 1.2
- AK-based Prestwick Library Screening Results, A. baumannii (increase in extracellular AK activity) [2, 10]: 1.1
- AK-based Prestwick Library Screening Results, E. cloacae (increase in extracellular AK activity) (E. cloacae; [10]): 1.3
- AK-based Prestwick Library Screening Results, K. pneumoniae (increase in extracellular AK activity) (K. pneumoniae; [10]): 1.0
- AK-based Prestwick Library Screening Results, E. coli (increase in extracellular AK activity) (E. coli; [10]): 1.3
- AK-based Prestwick Library Screening Results, E. faecium (increase in extracellular AK activity) (E. faecium; [10]): 1.0
